Experiments:
CDK6_CycD1 = biological target: T1, CDK6_CycD1 (Homo sapiens, UniProt Q00534); experiment: Radiometric protein kinase assay (33PanQinase), CDK6_CycD1; assay type: biochemical
T1 construct: purchased Reaction Biology

CDK4_CycD3 = biological target: T2, CDK4_CycD3 (Homo sapiens, UniProt P11802); experiment: Radiometric protein kinase assay (33PanQinase), CDK4_CycD3; assay type: biochemical
T2 construct: purchased Reaction Biology

CDK15_CycA2 = biological target: T3, CDK15_CycA2 (Homo sapiens, UniProt Q96Q40); experiment: Radiometric protein kinase assay (33PanQinase), CDK15_CycA2; assay type: biochemical
T3 construct: purchased Reaction Biology

CDK20_CycH = CDK20_CycH (Homo sapiens, UniProt Q8IZL9); experiment: Radiometric protein kinase assay (33PanQinase), CDK20_CycH; assay type: biochemical
CDK9_CycK = biological target: T4, CDK9_CycK (Homo sapiens, UniProt P50750); experiment: Radiometric protein kinase assay (33PanQinase), CDK9_CycK; assay type: biochemical
T4 construct: purchased Reaction Biology

CDK2_CycA2 = biological target: T5, CDK2_CycA2 (Homo sapiens, UniProt P24941); experiment: Radiometric protein kinase assay (33PanQinase), CDK2_CycA2; assay type: biochemical
T5 construct: purchased Reaction Biology

CDK17_p35NCK = CDK17_p35NCK (Homo sapiens, UniProt Q00537); experiment: Radiometric protein kinase assay (33PanQinase), CDK17_p35NCK; assay type: biochemical
CDK13_CycK = biological target: T6, CDK13_CycK (Homo sapiens, UniProt Q14004); experiment: Radiometric protein kinase assay (33PanQinase), CDK13_CycK; assay type: biochemical
T6 construct: purchased Reaction Biology

CDK1_CycA2 = biological target: T7, CDK1_CycA2 (Homo sapiens, UniProt P06493); experiment: Radiometric protein kinase assay (33PanQinase), CDK1_CycA2; assay type: biochemical
T7 construct: purchased Reaction Biology

CDK4_CycD1 = biological target: T8, CDK4_CycD1 (Homo sapiens, UniProt P11802); experiment: Radiometric protein kinase assay (33PanQinase), CDK4_CycD1; assay type: biochemical
T8 construct: purchased Reaction Biology

CDK6_CycD3 = biological target: T9, CDK6_CycD3 (Homo sapiens, UniProt Q00534); experiment: Radiometric protein kinase assay (33PanQinase), CDK6_CycD3; assay type: biochemical; details: slope of the IC50 fit
T9 construct: purchased Reaction Biology

CDK5_p25NCK = biological target: T10, CDK5_p25NCK (Homo sapiens, UniProt Q00535); experiment: Radiometric protein kinase assay (33PanQinase), CDK5_p25NCK; assay type: biochemical
T10 construct: purchased Reaction Biology

CDK3_CycC = biological target: T11, CDK3_CycC (Homo sapiens, UniProt Q00526); experiment: Radiometric protein kinase assay (33PanQinase), CDK3_CycC; assay type: biochemical
T11 construct: purchased Reaction Biology

CDK8 = tested on: CDK8; design: method as in numbers not given; details: reporter displacement assay; previously characterized compounds, no method in this paper; ref numbers not given; read-out: IC50 for in vitro CDK8 binding; cited from earlier work
CDK4_CycD2 = biological target: T12, CDK4_CycD2 (Homo sapiens, UniProt P11802); experiment: Radiometric protein kinase assay (33PanQinase), CDK4_CycD2; assay type: biochemical
T12 construct: purchased Reaction Biology

COLO205 cells = experiment: Promoter reporter panel (transient luciferase constructs), COLO205; assay type: cell-based, human; details: COLO205, 350 nM, 6 h
Protocol: Transcription factor activity was assayed in cell lines using 45 different plasmid reporter constructs encoding firefly luciferase under the control of a basal promoter element downstream of specific transcriptional response elements (Qiagen, Germany; Supporting Table S1). Firefly luciferase under the control of basal promoter element alone was used to establish the baseline signal and cotransfection of a construct expressing renilla luciferase from a CMV-promoter was used as a transfection control. Cells were reverse-transfected with reporter plasmids, compounds were added 42 h post transfection and reporter activity quantified following 6 h continuous exposure.
Transcription factor promoter reporter assays were carried out to define signalling pathways and biological processes modulated by CDK8/19 ligands. A panel of plasmid reporter constructs encoding firefly luciferase under the control of a basal promoter element with specific transcriptional response elements were used (Qiagen, Germany;
Firefly luciferase under the control of the minimal promoter element (TATA box) alone was used to establish the base-line signal and a construct expressing renilla luciferase from a CMV-promoter was used as a transfection control. COLO205 human colon cancer cells or SW620 parental and CRISPR KO cells were reverse-transfected with the panel of plasmid reporters in a 96 well plate format. The reporter mixes were prepared at 40:1 ratio of fLUC to rLUC plasmid at a final concentration of
100 ng/ml. For each well 1 ul plasmid was complexed with 1 ul Lipofectamine 2000
(Thermo Fisher Scientific, UK) in 50 ul OptiMEM (Thermo Fisher Scientific, UK) media
for 20 mins at room temperature. Cells were trypsinised and 50 ul of cells at 2e5
cells/ml in supplemented DMEM were added to the 50 ul of plasmid:lipofectamine
mixture in OptiMEM in a well of a 96-well white opaque flat bottom microtiter plate.
fLUC and rLUC were measured by the addition of 100 ul dual glo luciferase reagent
(Promega, USA). Reporter activity was quantified in untreated cells 48 hours post- […]

CDK2_CycD1 = biological target: T13, CDK2_CycD1 (Homo sapiens, UniProt P24941); experiment: Radiometric protein kinase assay (33PanQinase), CDK2_CycD1; assay type: biochemical
T13 construct: purchased Reaction Biology

CDK9_CycT1 = biological target: T14, CDK9_CycT1 (Homo sapiens, UniProt P50750); experiment: Radiometric protein kinase assay (33PanQinase), CDK9_CycT1; assay type: biochemical
T14 construct: purchased Reaction Biology

CDK8_CycC = biological target: T15, CDK8_CycC (Homo sapiens, UniProt P49336); experiment: Radiometric protein kinase assay (33PanQinase), CDK8_CycC; assay type: biochemical
T15 construct: purchased Reaction Biology

CDK19_CycC = biological target: T16, CDK19_CycC (Homo sapiens, UniProt Q9BWU1); experiment: Radiometric protein kinase assay (33PanQinase), CDK19_CycC; assay type: biochemical
T16 construct: purchased Reaction Biology

CDK12_CycK = biological target: T17, CDK12_CycK (Homo sapiens, UniProt Q9NYV4); experiment: Radiometric protein kinase assay (33PanQinase), CDK12_CycK; assay type: biochemical
T17 construct: purchased Reaction Biology

CDK5_p35NCK = biological target: T18, CDK5_p35NCK (Homo sapiens, UniProt Q00535); experiment: Radiometric protein kinase assay (33PanQinase), CDK5_p35NCK; assay type: biochemical
T18 construct: purchased Reaction Biology

CDK10_CycQ = CDK10_CycQ (Homo sapiens, UniProt Q15131); experiment: Radiometric protein kinase assay (33PanQinase), CDK10_CycQ; assay type: biochemical
CDK6_CycD2 = biological target: T19, CDK6_CycD2 (Homo sapiens, UniProt Q00534); experiment: Radiometric protein kinase assay (33PanQinase), CDK6_CycD2; assay type: biochemical
T19 construct: purchased Reaction Biology

CDK11B 357-795_CycK = CDK11B 357-795_CycK (Homo sapiens, UniProt P21127); experiment: Radiometric protein kinase assay (33PanQinase), CDK11B 357-795_CycK; assay type: biochemical
CDK2_CycE1 = biological target: T20, CDK2_CycE1 (Homo sapiens, UniProt P24941); experiment: Radiometric protein kinase assay (33PanQinase), CDK2_CycE1; assay type: biochemical
T20 construct: purchased Reaction Biology

CDK3_CycE1 = biological target: T21, CDK3_CycE1 (Homo sapiens, UniProt Q00526); experiment: Radiometric protein kinase assay (33PanQinase), CDK3_CycE1; assay type: biochemical
T21 construct: purchased Reaction Biology

CDK1_CycE1 = biological target: T22, CDK1_CycE1 (Homo sapiens, UniProt P06493); experiment: Radiometric protein kinase assay (33PanQinase), CDK1_CycE1; assay type: biochemical
T22 construct: purchased Reaction Biology

CDK7_CycH_MAT1 = biological target: T23, CDK7_CycH_MAT1 (Homo sapiens, UniProt P50613); experiment: Radiometric protein kinase assay (33PanQinase), CDK7_CycH_MAT1; assay type: biochemical
T23 construct: purchased Reaction Biology

CDK1_CycB1 = biological target: T24, CDK1_CycB1 (Homo sapiens, UniProt P06493); experiment: Radiometric protein kinase assay (33PanQinase), CDK1_CycB1; assay type: biochemical
T24 construct: purchased Reaction Biology

CDK20_CycT1 = CDK20_CycT1 (Homo sapiens, UniProt Q8IZL9); experiment: Radiometric protein kinase assay (33PanQinase), CDK20_CycT1; assay type: biochemical
CDK16_CycY = biological target: T25, CDK16_CycY (Homo sapiens, UniProt Q00536); experiment: Radiometric protein kinase assay (33PanQinase), CDK16_CycY; assay type: biochemical
T25 construct: purchased Reaction Biology

CDK14_CycY = CDK14_CycY (Homo sapiens, UniProt O94921); experiment: Radiometric protein kinase assay (33PanQinase), CDK14_CycY; assay type: biochemical
CDK18_CycY = CDK18_CycY (Homo sapiens, UniProt Q07002); experiment: Radiometric protein kinase assay (33PanQinase), CDK18_CycY; assay type: biochemical
[1] = highest assay concentration 1.00E-05 M

T24 sequence (P06493 whole entry): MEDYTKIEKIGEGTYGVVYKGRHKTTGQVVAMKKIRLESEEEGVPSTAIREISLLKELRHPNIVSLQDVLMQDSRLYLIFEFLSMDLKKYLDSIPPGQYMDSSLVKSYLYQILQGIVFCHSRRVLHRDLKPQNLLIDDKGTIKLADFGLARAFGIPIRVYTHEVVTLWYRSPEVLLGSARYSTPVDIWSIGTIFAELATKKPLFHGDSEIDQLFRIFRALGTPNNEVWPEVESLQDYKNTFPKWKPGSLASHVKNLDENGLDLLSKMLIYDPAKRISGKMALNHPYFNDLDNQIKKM
T24 sequence (P14635 whole entry partner): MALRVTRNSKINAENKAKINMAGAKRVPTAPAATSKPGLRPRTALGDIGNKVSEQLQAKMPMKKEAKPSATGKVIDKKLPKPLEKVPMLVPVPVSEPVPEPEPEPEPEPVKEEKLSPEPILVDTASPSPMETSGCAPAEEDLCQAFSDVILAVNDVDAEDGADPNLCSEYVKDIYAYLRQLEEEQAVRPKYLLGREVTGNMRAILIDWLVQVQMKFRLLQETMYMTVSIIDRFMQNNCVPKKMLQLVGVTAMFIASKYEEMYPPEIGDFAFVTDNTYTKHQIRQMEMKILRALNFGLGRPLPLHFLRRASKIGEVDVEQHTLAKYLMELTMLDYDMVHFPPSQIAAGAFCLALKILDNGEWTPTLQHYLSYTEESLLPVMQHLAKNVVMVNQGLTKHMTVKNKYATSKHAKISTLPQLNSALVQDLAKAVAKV
T25 sequence (Q00536 whole entry): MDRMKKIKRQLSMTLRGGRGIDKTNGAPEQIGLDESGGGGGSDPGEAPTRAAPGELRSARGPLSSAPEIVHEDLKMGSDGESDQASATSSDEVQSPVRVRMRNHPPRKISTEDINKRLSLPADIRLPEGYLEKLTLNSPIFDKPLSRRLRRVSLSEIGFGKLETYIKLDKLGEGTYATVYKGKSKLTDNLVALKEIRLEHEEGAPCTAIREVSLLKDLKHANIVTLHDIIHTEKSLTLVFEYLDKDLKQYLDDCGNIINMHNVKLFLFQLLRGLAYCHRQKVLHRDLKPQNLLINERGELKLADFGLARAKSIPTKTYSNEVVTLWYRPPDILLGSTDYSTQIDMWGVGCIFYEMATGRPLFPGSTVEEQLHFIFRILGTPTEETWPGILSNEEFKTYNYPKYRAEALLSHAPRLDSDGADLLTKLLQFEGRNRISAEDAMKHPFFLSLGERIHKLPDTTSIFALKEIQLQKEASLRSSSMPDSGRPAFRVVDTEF
T25 sequence (Q8ND76 whole entry partner): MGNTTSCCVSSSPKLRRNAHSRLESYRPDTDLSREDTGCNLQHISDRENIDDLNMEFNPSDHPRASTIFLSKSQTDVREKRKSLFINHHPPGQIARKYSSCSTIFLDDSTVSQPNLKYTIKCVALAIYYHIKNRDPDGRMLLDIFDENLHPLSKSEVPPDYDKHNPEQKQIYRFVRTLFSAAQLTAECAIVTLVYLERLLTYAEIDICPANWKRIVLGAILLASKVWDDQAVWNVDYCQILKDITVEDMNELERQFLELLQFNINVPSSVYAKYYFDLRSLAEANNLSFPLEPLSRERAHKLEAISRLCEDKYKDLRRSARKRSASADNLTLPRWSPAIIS
Sequence of CDK11B 357-795_CycK (P21127 357-795): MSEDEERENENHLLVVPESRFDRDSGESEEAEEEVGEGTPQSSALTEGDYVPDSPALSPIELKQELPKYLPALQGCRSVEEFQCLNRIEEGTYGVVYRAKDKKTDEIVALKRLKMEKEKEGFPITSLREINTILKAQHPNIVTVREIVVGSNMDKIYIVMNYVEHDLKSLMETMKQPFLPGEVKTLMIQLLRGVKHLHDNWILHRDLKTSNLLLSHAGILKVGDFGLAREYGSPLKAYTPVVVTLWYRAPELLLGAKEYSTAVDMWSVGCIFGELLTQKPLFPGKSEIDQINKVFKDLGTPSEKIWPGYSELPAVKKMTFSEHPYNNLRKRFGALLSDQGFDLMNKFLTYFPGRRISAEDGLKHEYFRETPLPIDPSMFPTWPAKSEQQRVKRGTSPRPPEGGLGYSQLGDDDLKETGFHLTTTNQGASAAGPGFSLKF
Sequence of CDK20_CycT1 (Q8IZL9 whole entry): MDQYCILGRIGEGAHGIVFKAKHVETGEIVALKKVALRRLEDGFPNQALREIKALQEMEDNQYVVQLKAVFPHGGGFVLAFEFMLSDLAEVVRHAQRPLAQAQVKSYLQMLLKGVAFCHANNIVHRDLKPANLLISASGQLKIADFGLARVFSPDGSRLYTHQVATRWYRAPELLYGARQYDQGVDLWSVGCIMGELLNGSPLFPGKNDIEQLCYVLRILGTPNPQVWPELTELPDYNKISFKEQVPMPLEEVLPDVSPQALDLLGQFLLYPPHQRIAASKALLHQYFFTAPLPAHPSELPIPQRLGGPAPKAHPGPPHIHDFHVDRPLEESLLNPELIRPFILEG
Sequence of CDK20_CycH (Q8IZL9 whole entry): as above
T19 sequence (Q00534 whole entry): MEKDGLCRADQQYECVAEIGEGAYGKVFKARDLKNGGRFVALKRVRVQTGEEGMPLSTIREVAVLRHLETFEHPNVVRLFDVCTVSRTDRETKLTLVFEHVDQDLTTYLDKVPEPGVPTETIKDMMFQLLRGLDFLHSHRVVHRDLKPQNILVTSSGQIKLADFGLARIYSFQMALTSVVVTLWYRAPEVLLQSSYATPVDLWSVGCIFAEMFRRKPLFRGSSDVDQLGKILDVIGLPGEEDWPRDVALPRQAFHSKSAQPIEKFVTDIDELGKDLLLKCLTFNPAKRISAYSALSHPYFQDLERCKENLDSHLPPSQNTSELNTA
T19 sequence (P30279 whole entry partner): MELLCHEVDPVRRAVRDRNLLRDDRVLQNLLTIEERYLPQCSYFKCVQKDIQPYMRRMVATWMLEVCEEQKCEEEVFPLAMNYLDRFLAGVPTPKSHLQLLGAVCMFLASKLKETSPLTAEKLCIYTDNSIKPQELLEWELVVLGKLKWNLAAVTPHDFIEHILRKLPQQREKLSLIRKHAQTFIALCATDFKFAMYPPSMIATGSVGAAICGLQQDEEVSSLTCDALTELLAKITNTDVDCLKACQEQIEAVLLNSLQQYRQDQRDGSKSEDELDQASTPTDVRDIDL
T11 sequence (Q00526 whole entry): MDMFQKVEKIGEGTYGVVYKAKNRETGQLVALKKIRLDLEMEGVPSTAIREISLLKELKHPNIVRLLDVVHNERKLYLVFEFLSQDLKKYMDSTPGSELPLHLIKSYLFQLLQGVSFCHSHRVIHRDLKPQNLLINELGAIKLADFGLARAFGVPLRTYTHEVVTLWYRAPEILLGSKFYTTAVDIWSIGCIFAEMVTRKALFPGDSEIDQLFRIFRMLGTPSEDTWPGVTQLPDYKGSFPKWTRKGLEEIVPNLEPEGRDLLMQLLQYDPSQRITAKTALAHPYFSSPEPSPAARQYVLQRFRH
T11 sequence (P24863 whole entry partner): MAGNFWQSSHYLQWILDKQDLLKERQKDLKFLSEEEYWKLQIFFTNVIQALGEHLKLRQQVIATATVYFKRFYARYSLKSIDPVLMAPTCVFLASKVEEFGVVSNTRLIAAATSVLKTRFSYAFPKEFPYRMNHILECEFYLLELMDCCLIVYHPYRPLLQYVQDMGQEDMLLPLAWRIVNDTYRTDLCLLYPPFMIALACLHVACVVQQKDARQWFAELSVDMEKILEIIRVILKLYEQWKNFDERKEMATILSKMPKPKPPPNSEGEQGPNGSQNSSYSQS
T23 sequence (P50613 whole entry): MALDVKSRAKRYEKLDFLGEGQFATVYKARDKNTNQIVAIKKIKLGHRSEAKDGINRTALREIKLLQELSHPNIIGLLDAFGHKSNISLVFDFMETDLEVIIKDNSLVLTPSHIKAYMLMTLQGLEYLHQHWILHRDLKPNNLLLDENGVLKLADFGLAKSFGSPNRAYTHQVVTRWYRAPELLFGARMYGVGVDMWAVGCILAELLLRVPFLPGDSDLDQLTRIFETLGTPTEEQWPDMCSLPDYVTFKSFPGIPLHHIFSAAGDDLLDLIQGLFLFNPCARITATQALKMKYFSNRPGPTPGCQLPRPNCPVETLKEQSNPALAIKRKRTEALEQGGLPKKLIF
T23 sequence (P51946 whole entry partner): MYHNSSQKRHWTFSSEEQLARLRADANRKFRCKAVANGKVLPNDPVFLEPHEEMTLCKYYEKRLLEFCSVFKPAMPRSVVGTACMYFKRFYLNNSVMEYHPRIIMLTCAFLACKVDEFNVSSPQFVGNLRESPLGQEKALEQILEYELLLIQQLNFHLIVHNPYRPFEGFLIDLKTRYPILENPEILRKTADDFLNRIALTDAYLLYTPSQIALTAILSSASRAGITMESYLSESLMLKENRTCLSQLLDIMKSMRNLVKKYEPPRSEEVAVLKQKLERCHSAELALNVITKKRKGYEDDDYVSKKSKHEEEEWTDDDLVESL
T23 sequence (P51948 whole entry partner): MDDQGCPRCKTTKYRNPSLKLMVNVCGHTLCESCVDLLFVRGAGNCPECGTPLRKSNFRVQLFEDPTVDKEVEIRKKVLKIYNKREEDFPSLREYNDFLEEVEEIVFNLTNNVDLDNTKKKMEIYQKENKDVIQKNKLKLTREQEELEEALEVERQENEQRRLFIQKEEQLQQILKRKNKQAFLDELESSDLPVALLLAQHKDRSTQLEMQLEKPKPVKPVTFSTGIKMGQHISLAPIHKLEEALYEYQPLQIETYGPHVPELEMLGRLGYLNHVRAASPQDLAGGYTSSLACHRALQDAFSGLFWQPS

SMILES: Cc1n[nH]c2ncc(C(=O)N3CCC[C@H]3c3ccc(Cl)cc3)cc12 [MSC2530818]
- IC50 (CDK6_CycD1; [1]): > 10 µM
- Hill Slope (CDK6_CycD1; slope of the IC50 fit): -0.22
- IC50 (CDK4_CycD3; [1]): > 10 µM
- Hill Slope (CDK4_CycD3; slope of the IC50 fit): -0.71
- IC50 (CDK15_CycA2; [1]): > 10 µM
- Hill Slope (CDK15_CycA2; slope of the IC50 fit): -0.85
- IC50 (CDK20_CycH; [1]): > 10 µM
- Hill Slope (CDK20_CycH; slope of the IC50 fit): -0.81
- IC50 (CDK9_CycK; [1]): > 10 µM
- Hill Slope (CDK9_CycK; slope of the IC50 fit): -0.78
- IC50 (CDK2_CycA2): 6.53 µM
- IC50 (CDK17_p35NCK; [1]): > 10 µM
- Hill Slope (CDK17_p35NCK; slope of the IC50 fit): -0.57
- IC50 (CDK13_CycK): > 10 µM
- Hill Slope (CDK13_CycK; slope of the IC50 fit): -0.19
- IC50 (CDK1_CycA2): 6.46 µM
- Hill Slope (CDK1_CycA2; slope of the IC50 fit): -0.93
- IC50 (CDK4_CycD1; [1]): > 10 µM
- Hill Slope (CDK4_CycD1; slope of the IC50 fit): -0.48
- Hill Slope (CDK6_CycD3): -0.25
- IC50 (CDK5_p25NCK; [1]): > 10 µM
- Hill Slope (CDK5_p25NCK; slope of the IC50 fit): -0.57
- IC50 (CDK3_CycC): 6.41 µM
- Hill Slope (CDK3_CycC; slope of the IC50 fit): -0.76
- IC50 (CDK8): 0.0044 µM
- IC50 (CDK4_CycD2; [1]): > 10 µM
- Hill Slope (CDK4_CycD2; slope of the IC50 fit): -0.44
- reduction of activity of TCF/LEF, SP1 and PAX6 reporter constructs (COLO205 cells): > 1.5 fold
- IC50 (CDK2_CycD1): 9.73 µM
- Hill Slope (CDK2_CycD1; slope of the IC50 fit): -1.08
- IC50 (CDK9_CycT1; [1]): > 10 µM
- Hill Slope (CDK9_CycT1; slope of the IC50 fit): -1.26
- IC50 (CDK8_CycC): 0.114 µM
- Hill Slope (CDK8_CycC; slope of the IC50 fit): -0.45
- IC50 (CDK19_CycC): 0.355 µM
- Hill Slope (CDK19_CycC; slope of the IC50 fit): -0.43
- IC50 (CDK12_CycK; [1]): 9.75 µM
- Hill Slope (CDK12_CycK; slope of the IC50 fit): -0.59
- IC50 (CDK5_p35NCK; [1]): 7.57 µM
- Hill Slope (CDK5_p35NCK; slope of the IC50 fit): -1.04
- IC50 (CDK10_CycQ; [1]): > 10 µM
- Hill Slope (CDK10_CycQ; slope of the IC50 fit): -1.12
- IC50 (CDK6_CycD2; [1]): > 10 µM
- Hill Slope (CDK6_CycD2; slope of the IC50 fit): -1.11
- IC50 (CDK11B 357-795_CycK; [1]): > 10 µM
- Hill Slope (CDK11B 357-795_CycK; slope of the IC50 fit): -0.64
- IC50 (CDK2_CycE1): 2.92 µM
- Hill Slope (CDK2_CycE1; slope of the IC50 fit): -1.29
- IC50 (CDK3_CycE1): > 10 µM
- Hill Slope (CDK3_CycE1; slope of the IC50 fit): -0.54
- IC50 (CDK1_CycE1): 4.15 µM
- Hill Slope (CDK1_CycE1; slope of the IC50 fit): -0.97
- IC50 (CDK7_CycH_MAT1; [1]): > 10 µM
- Hill Slope (CDK7_CycH_MAT1; slope of the IC50 fit): -0.6
- IC50 (CDK1_CycB1; [1]): > 10 µM
- Hill Slope (CDK1_CycB1; slope of the IC50 fit): -0.72
- IC50 (CDK20_CycT1; [1]): > 10 µM
- Hill Slope (CDK20_CycT1; slope of the IC50 fit): -0.44
- IC50 (CDK16_CycY; [1]): > 10 µM
- Hill Slope (CDK16_CycY; slope of the IC50 fit): -0.58
- IC50 (CDK14_CycY; [1]): > 10 µM
- Hill Slope (CDK14_CycY; slope of the IC50 fit): -1
- IC50 (CDK18_CycY; [1]): 3.72 µM
- Hill Slope (CDK18_CycY; slope of the IC50 fit): -1.14

SMILES: Cc1n[nH]c2ncc(C(=O)N3CCC[C@@H]3c3ccc(Cl)cc3)cc12 [MSC2530819]
- IC50 (CDK8): 0.59 µM

— article PMC12281475, “Mediator Kinase Inhibitor Selectivity and Activity in Colorectal Cancer” (ACS Chemical Biology, 2025)
